In patent US20260022142A1, “MACROCYCLIC IMMUNOMODULATORS” (Bristol-Myers Squibb Company, priority 2022, published 2026):
Bridge positions count the residues as written; N and C are the ends. Square brackets hold non-standard residues; d marks the D form. Peptide text beside a SMILES is read from it. * marks the point of attachment. ξ: configuration not given here. Phe(3-CF3) = N[C@@H](Cc1cccc(C(F)(F)F)c1)C(=O)O; Phe(4-COOH) = N[C@@H](Cc1ccc(C(=O)O)cc1)C(=O)O; Bip = N[C@@H](Cc1ccc(-c2ccccc2)cc1)C(=O)O; Phe(4-CN) = N#Cc1ccc(C[C@H](N)C(=O)O)cc1; NH(CH2)14COOH = O=C(O)CCCCCCCCCCCCCCN*; Phe(3-Me) = Cc1cccc(C[C@H](N)C(=O)O)c1; Phe(4-F) = N[C@@H](Cc1ccc(F)cc1)C(=O)O; Val(3-OH) = CC(C)(O)[C@H](N)C(=O)O; Val(3-F) = CC(C)(F)[C@H](N)C(=O)O; 4Pal = N[C@@H](Cc1ccncc1)C(=O)O; Cha = N[C@@H](CC1CCCCC1)C(=O)O; Cit = NC(=O)NCCC[C@H](N)C(=O)O; Thr(3ξ) = CC(O)[C@H](N)C(=O)O; PEG4 = NCCOCCOCCOCCOCCC(=O)O; Dap(Me) = CNC[C@H](N)C(=O)O; ξH = NC(Cc1c[nH]cn1)C(=O)O; Carboxymethyl = O=C(O)C*; Nle = CCCC[C@H](N)C(=O)O; Orn = NCCC[C@H](N)C(=O)O; Aun = NCCCCCCCCCCC(=O)O; Dab = NCC[C@H](N)C(=O)O; Dap = NC[C@H](N)C(=O)O; AEEA = NCCOCCOCC(=O)O; Piv = CC(C)(C)C(=O)*

What follows are compounds tested against T1, PD-1/PD-L1 interaction (PE-labeled human PD-L1-Ig binding to Jurkat cell line over-expressing human PD-1) (Homo sapiens, UniProt Q15116) (assay: Jurkat-PD-1 Cell Binding High-Content Screening Assay (CBA)). Conditions: Jurkat cell line over-expressing human PD-1; PE-labeled PD-L1-Ig 20 nM final; read-out: Jurkat hPD1-PDL1 IC50.
T1 construct: expressed in transfected cells; host or cells: Jurkat
T1 sequence (Q15116 25-288): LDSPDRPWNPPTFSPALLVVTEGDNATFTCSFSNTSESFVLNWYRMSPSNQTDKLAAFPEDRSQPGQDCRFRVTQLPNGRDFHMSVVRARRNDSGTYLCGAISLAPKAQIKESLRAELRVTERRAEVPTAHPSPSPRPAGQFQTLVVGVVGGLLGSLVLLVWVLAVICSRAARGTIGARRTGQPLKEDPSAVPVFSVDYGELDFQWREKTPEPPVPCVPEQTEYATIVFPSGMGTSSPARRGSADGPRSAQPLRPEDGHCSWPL
Assay type: cell-based
Method in brief: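 Human PD-L1-Ig carrying a covalent PE label on its Ig tag serves as the probe, applied at 20 nM final to compound-treated (2 h, 37° C) Jurkat-hPD-1 cells in medium with 10% fetal calf serum. After one hour, fixation and nuclear staining precede high-content image analysis.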

IC50 | SMILES
56.2 nM | Cc1cccc(C[C@@H]2NC(=O)[C@H](CC(=O)O)NC(=O)[C@H](Cc3ccc(F)cc3)NC(=O)[C@H](CCN)NC(=O)CSC[C@@H](C(=O)N[C@@H](CCN)C(=O)NCCCCCCCCCCC(=O)O)NC(=O)[C@H](CO)NC(=O)[C@H](C(C)(C)O)NC(=O)[C@H](CC3CCCCC3)NC(=O)[C@H](Cc3cnc[nH]3)NC(=O)[C@@H](CC(C)C)NC(=O)[C@H](CCCN)NC(=O)[C@H](Cc3ccc(OCC(=O)O)cc3)NC(=O)[C@H](Cc3ccc(-c4ccccc4)cc3)NC(=O)[C@H](Cc3ccc(OCC(=O)O)cc3)NC2=O)c1 [Compound 3732] ({CH2CO}-[Dab][Phe(4-F)]D[Phe(3-Me)]Y(Carboxymethyl)[Bip]Y(Carboxymethyl)[Orn][dL]H[Cha][Val(3-OH)]SC[Dab][Aun]-OH; thioether N-14)
3.6 nM | Cc1cccc(C[C@@H]2NC(=O)[C@H](CC(=O)O)NC(=O)[C@H](Cc3ccc(C#N)cc3)NC(=O)[C@H](C(C)O)NC(=O)CSC[C@@H](C(=O)N[C@@H](CCN)C(=O)NCCOCCOCC(=O)NCCCCCCCCCCC(=O)O)NC(=O)[C@H](Cc3cnc[nH]3)NC(=O)[C@H](C(C)(C)O)NC(=O)[C@H](CC3CCCCC3)NC(=O)[C@H](CCN)NC(=O)[C@@H](CC(C)C)NC(=O)[C@H](CCCN)NC(=O)[C@H](Cc3ccc(OCC(=O)O)cc3)NC(=O)[C@H](Cc3ccc(-c4ccccc4)cc3)NC(=O)[C@H](Cc3ccc(OCC(=O)O)cc3)NC2=O)c1 (stereo partly drawn) [Compound 3776] ({CH2CO}-[Thr(3ξ)][Phe(4-CN)]D[Phe(3-Me)]Y(Carboxymethyl)[Bip]Y(Carboxymethyl)[Orn][dL][Dab][Cha][Val(3-OH)]HC[Dab][AEEA][Aun]-OH; thioether N-14)
10.8 nM | Cc1cccc(C[C@@H]2NC(=O)[C@H](CC(=O)O)NC(=O)[C@H](Cc3ccc(OCC(=O)O)cc3)NC(=O)[C@H](CCCNC(=N)N)NC(=O)CSC[C@@H](C(=O)N[C@@H](CCN)C(=O)NCCCCCCCCCCC(=O)O)NC(=O)[C@H](CCC(N)=O)NC(=O)[C@H](C(C)C)NC(=O)[C@H](CC3CCCCC3)NC(=O)[C@H](CCN)NC(=O)[C@@H](CC(C)C)NC(=O)[C@H](CCCN)NC(=O)[C@H](Cc3ccc(O)cc3)NC(=O)[C@H](Cc3ccc(-c4ccccc4)cc3)NC(=O)[C@H](Cc3ccc(O)cc3)NC2=O)c1 [Compound 3382] ({CH2CO}-RY(Carboxymethyl)D[Phe(3-Me)]Y[Bip]Y[Orn][dL][Dab][Cha]VQC[Dab][Aun]-OH; thioether N-14)
38.2 nM | Cc1cccc(C[C@@H]2NC(=O)[C@H](CC(=O)O)NC(=O)[C@H](Cc3ccc(OCC(=O)O)cc3)NC(=O)[C@H](CCCNC(=N)N)NC(=O)CSC[C@@H](C(=O)N[C@H](CC(N)=O)C(=O)NCCCCCCCCCCC(=O)O)NC(=O)[C@H](C(C)O)NC(=O)[C@H](C(C)C)NC(=O)[C@H](CC3CCCCC3)NC(=O)[C@H](CCN)NC(=O)[C@@H](CC(C)C)NC(=O)[C@H](CCCNC(=N)N)NC(=O)[C@H](CCCCNC(=O)C(C)(C)C)NC(=O)[C@H](Cc3ccc(-c4ccccc4)cc3)NC(=O)[C@H](Cc3ccc(O)cc3)NC2=O)c1 (stereo partly drawn) [Compound 3542] ({CH2CO}-RY(Carboxymethyl)D[Phe(3-Me)]Y[Bip]K(Piv)R[dL][Dab][Cha]V[Thr(3ξ)]C[dN][Aun]-OH; thioether N-14)
224 nM | CNC[C@@H]1NC(=O)CSC[C@@H](C(=O)N[C@@H](CCN)C(=O)NCCOCCOCC(=O)NCCCCCCCCCCCCCCC(=O)O)NC(=O)[C@H](CCC(=O)O)NC(=O)[C@H](C(C)C)NC(=O)[C@H](CC2CCCCC2)NC(=O)[C@H](CCN)NC(=O)[C@@H](CC(C)C)NC(=O)[C@H](CCCN)NC(=O)[C@H](Cc2ccc(C(=O)O)cc2)NC(=O)[C@H](Cc2ccc(-c3ccccc3)cc2)NC(=O)[C@H](Cc2ccc(C(=O)O)cc2)NC(=O)[C@H](Cc2cccc(C(F)(F)F)c2)NC(=O)[C@H](CC(=O)O)NC(=O)[C@H](Cc2ccc(C(=O)O)cc2)NC1=O [Compound 3896] ({CH2CO}-[Dap(Me)][Phe(4-COOH)]D[Phe(3-CF3)][Phe(4-COOH)][Bip][Phe(4-COOH)][Orn][dL][Dab][Cha]VEC[Dab][AEEA]-{NH(CH2)14COOH}; thioether N-14)

Second part, the compound before the results:

SMILES | IC50
CC(C)C[C@@H]1NC(=O)[C@H](CCN)NC(=O)[C@@H](CC(C)C)NC(=O)[C@H](CCCN)NC(=O)[C@H](Cc2ccc(O)cc2)NC(=O)[C@H](Cc2ccc(-c3ccccc3)cc2)NC(=O)[C@H](C(C)C)NC(=O)[C@H](Cc2c[nH]c3ccccc23)NC(=O)[C@H](CC(=O)O)NC(=O)[C@H](Cc2ccc(OCC(=O)O)cc2)NC(=O)[C@H](Cc2ccncc2)NC(=O)CSC[C@@H](C(=O)N[C@@H](CCN)C(=O)NCCCCCCCCCCC(=O)O)NC(=O)[C@H]([C@@H](C)O)NC(=O)[C@H](C(C)C)NC1=O [Compound 2742] ({CH2CO}-[4Pal]Y(Carboxymethyl)DWV[Bip]Y[Orn][dL][Dab]LVTC[Dab][Aun]-OH; thioether N-14) | 133 nM
CC(C)C[C@H]1NC(=O)[C@H](CCCN)NC(=O)[C@H](Cc2ccc(O)cc2)NC(=O)[C@H](Cc2ccc(-c3ccccc3)cc2)NC(=O)[C@H](Cc2ccc(O)cc2)NC(=O)[C@H](Cc2c[nH]c3ccccc23)NC(=O)[C@H](CC(=O)O)NC(=O)[C@H](Cc2ccc(C(=O)O)cc2)NC(=O)[C@H](Cc2ccc(OCC(=O)O)cc2)NC(=O)CSC[C@@H](C(=O)NCCOCCOCC(=O)NCCCCCCCCCCC(=O)O)NC(=O)[C@H](CCCCN)NC(=O)[C@H](Cc2ccc(O)cc2)NC(=O)[C@H](CC2CCCCC2)NC(=O)[C@H](CCN)NC1=O [Compound 2515] ({CH2CO}-Y(Carboxymethyl)[Phe(4-COOH)]DWY[Bip]Y[Orn][dL][Dab][Cha]YKC[AEEA][Aun]-OH; thioether N-14) | 40.4 nM
CCCC[C@@H]1NC(=O)CSC[C@@H](C(=O)N[C@@H](CCN)C(=O)NCCOCCOCCOCCOCCC(=O)NCCCCCCCCCCCCCCC(=O)O)NC(=O)[C@H](CO)NC(=O)[C@H](C(C)(C)O)NC(=O)[C@H](CC2CCCCC2)NC(=O)[C@H](CCN)NC(=O)[C@@H](CC(C)C)NC(=O)[C@H](CCCN)NC(=O)[C@H](Cc2ccc(C(=O)O)cc2)NC(=O)[C@H](Cc2ccc(-c3ccccc3)cc2)NC(=O)[C@H](Cc2ccc(C(=O)O)cc2)NC(=O)[C@H](Cc2cccc(C(F)(F)F)c2)NC(=O)[C@H](CC(=O)O)NC(=O)[C@H](Cc2ccc(OCC(=O)O)cc2)NC1=O [Compound 2912] ({CH2CO}-[Nle]Y(Carboxymethyl)D[Phe(3-CF3)][Phe(4-COOH)][Bip][Phe(4-COOH)][Orn][dL][Dab][Cha][Val(3-OH)]SC[Dab][PEG4]-{NH(CH2)14COOH}; thioether N-14) | 240 nM
CC(C)C[C@@H]1NC(=O)[C@H](Cc2c[nH]c3ccccc23)NC(=O)[C@H](CC(=O)O)NC(=O)[C@H](Cc2ccc(C(=O)O)cc2)NC(=O)[C@H](Cc2ccc(OCC(=O)O)cc2)NC(=O)CSC[C@@H](C(=O)N[C@@H](CCCNC(=N)N)C(=O)NCCCCCCCCCCC(=O)O)NC(=O)[C@H](CCCNC(N)=O)NC(=O)[C@H](C(C)C)NC(=O)[C@H](CC2CCCCC2)NC(=O)[C@H](CCN)NC(=O)[C@@H](CC(C)C)NC(=O)[C@H](CCCN)NC(=O)[C@H](Cc2ccc(O)cc2)NC(=O)[C@H](Cc2ccc(-c3ccccc3)cc2)NC1=O [Compound 1237] ({CH2CO}-Y(Carboxymethyl)[Phe(4-COOH)]DWL[Bip]Y[Orn][dL][Dab][Cha]V[Cit]CR[Aun]-OH; thioether N-14) | 70.6 nM
CC(C)C[C@H]1NC(=O)[C@H](CCCN)NC(=O)[C@H](C(C)C)NC(=O)[C@H](Cc2ccc(-c3ccccc3)cc2)NC(=O)[C@H](C(C)C)NC(=O)[C@H](Cc2c[nH]c3ccccc23)NC(=O)[C@H](CC(=O)O)NC(=O)[C@H](Cc2ccc(OCC(=O)O)cc2)NC(=O)[C@H](CN)NC(=O)CSC[C@@H](C(=O)N[C@@H](C)C(=O)N[C@@H](CCN)C(=O)NCCCCCCCCCCC(=O)O)NC(=O)[C@H]([C@@H](C)O)NC(=O)[C@H](C(C)C)NC(=O)[C@H](CC2CCCCC2)NC(=O)[C@H](Cc2cnc[nH]2)NC1=O [Compound 1082] ({CH2CO}-[Dap]Y(Carboxymethyl)DWV[Bip]V[Orn][dL]H[Cha]VTCA[Dab][Aun]-OH; thioether N-14) | 24.7 nM
CC(C)C[C@H]1NC(=O)[C@H](CCCN)NC(=O)[C@H](C(C)C)NC(=O)[C@H](Cc2ccc(-c3ccccc3)cc2)NC(=O)[C@H](C(C)C)NC(=O)[C@H](Cc2c[nH]c3ccccc23)NC(=O)[C@H](CC(=O)O)NC(=O)[C@H](Cc2ccc(OCC(=O)O)cc2)NC(=O)[C@H](CN)NC(=O)CSC[C@@H](C(=O)NCCOCCOCC(=O)NC(Cc2cnc[nH]2)C(=O)NCCCCCCCCCCC(=O)O)NC(=O)[C@H]([C@@H](C)O)NC(=O)[C@H](C(C)C)NC(=O)[C@H](CC2CCCCC2)NC(=O)[C@H](Cc2cnc[nH]2)NC1=O (stereo partly drawn) [Compound 1137] ({CH2CO}-[Dap]Y(Carboxymethyl)DWV[Bip]V[Orn][dL]H[Cha]VTC[AEEA][ξH][Aun]-OH; thioether N-14) | 18.6 nM
Cc1cccc(C[C@@H]2NC(=O)[C@H](CC(=O)O)NC(=O)[C@H](Cc3ccc(OCC(=O)O)cc3)NC(=O)[C@H](CCCNC(=N)N)NC(=O)CSC[C@@H](C(=O)N[C@@H](CCN)C(=O)NCCCCCCCCCCC(=O)O)NC(=O)[C@H]([C@@H](C)O)NC(=O)[C@H](C(C)C)NC(=O)[C@H](CC3CCCCC3)NC(=O)[C@H](CCN)NC(=O)[C@@H](CC(C)C)NC(=O)[C@H](CCCN)NC(=O)[C@H](Cc3ccc(O)cc3)NC(=O)[C@H](Cc3ccc(-c4ccccc4)cc3)NC(=O)[C@H](C(C)(C)F)NC2=O)c1 [Compound 2125] ({CH2CO}-RY(Carboxymethyl)D[Phe(3-Me)][Val(3-F)][Bip]Y[Orn][dL][Dab][Cha]VTC[Dab][Aun]-OH; thioether N-14) | 16.4 nM
